According to ChEMBL document CHEMBL1201862, “PubChem BioAssay data set” (2004):
Values joined by “and” are separate entries in the source; they are usually repeats but may differ in a detail not shown here. Equal entries are not always repeated.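 Dose response: 5 concentrations. Exposure: 48 h. Format: 96-well plates. Endpoint: linear interpolation; highest concentration if not reached. Here, GI50 denotes the concentration required for 50% inhibition of growth.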 Active and inactive are the calls of the source. No stated cut-off is given here; in the data, active = GI50 up to about 1.1 µM and inactive = higher.

Legend:
Experiment in all cases: DTP human tumour cell line panel, 48 h
[1] = test system: CCRF-CEM
[2] = test system: EKVX
[3] = test system: HCT-116
[4] = test system: K562
[5] = test system: KM12
[6] = test system: LOX IMVI
[7] = test system: MOLT-4
[8] = test system: Malme-3M
[9] = test system: NCI-H23
[10] = test system: NCI-H522
[11] = test system: OVCAR-8
[12] = test system: SF-539
[13] = test system: SN12C
[14] = test system: SNB-75
[15] = test system: TK-10
[16] = test system: U-251
[17] = test system: CAKI-1
[18] = test system: SK-MEL-2

Measured: GI50

CC(=O)OC1C=CC2CCN3C(=O)c4cc5c(cc4[C@H]1C23)OCO5 (stereo partly specified)
inactive: [1] > 100 µM | [2] > 100 µM | [3] > 100 µM | [4] > 100 µM | [5] > 100 µM | [6] > 100 µM | [7] > 100 µM | [8] > 100 µM | [9] > 100 µM | [10] > 100 µM | [11] > 100 µM | [12] > 100 µM | [13] > 100 µM | [14] > 100 µM | [15] > 100 µM | [16] > 100 µM

O=c1c2ccccc2[nH]c2ccc3c(Cl)n[nH]c3c12
inactive: [17] 23.7 µM | [1] 56.9 µM | [2] 47.3 µM | [3] 31.8 µM | [4] 34.3 µM | [5] 32.9 µM | [6] 20.8 µM | [7] 9.95 µM | [8] 19.1 µM | [9] 35.2 µM | [10] 35 µM | [11] 40.5 µM | [18] 30.7 µM | [13] 33.5 µM | [14] 42.9 µM | [15] 23.8 µM | [16] 53.6 µM

CCCCCCCCCCCCCCCCCCOCC(C[N+]1(C)CCC(O)CC1)OCC (stereo unspecified)
inactive: [17] 5.65 µM | [1] 1.97 µM | [2] 13.8 µM | [3] 7.71 µM | [4] 4.17 µM | [5] 1.84 µM | [7] 2.87 µM | [8] 12.3 µM | [9] 2.88 µM | [10] 5.71 µM | [11] 4.2 µM | [12] 14.9 µM | [18] 4.3 µM | [13] 4.06 µM | [14] 3.95 µM | [15] 3.92 µM

O=C1[C@H]2ON(c3ccccc3)C(c3ccccc3F)[C@H]2C(=O)N1c1ccc(Cc2ccc(N3C(=O)[C@@H]4ON(c5ccccc5)C(c5ccccc5F)[C@@H]4C3=O)cc2)cc1 (stereo partly specified)
inactive: [17] > 100 µM | [1] > 100 µM | [4] > 100 µM | [5] > 100 µM | [6] 63.8 µM | [7] > 100 µM | [8] > 100 µM | [9] > 100 µM | [12] > 100 µM | [18] > 100 µM | [13] > 100 µM | [14] > 100 µM | [16] > 100 µM

COC1=CC(=O)OC(/C=C(C)/C=C/C2=C(C)CCCC2(C)C)C1 (stereo unspecified)
inactive: [17] > 100 µM | [1] > 100 µM | [2] > 100 µM | [3] > 100 µM | [4] > 100 µM | [5] > 100 µM | [7] > 100 µM | [8] > 100 µM | [9] > 100 µM | [10] > 100 µM | [11] > 100 µM | [12] > 100 µM | [18] > 100 µM | [13] > 100 µM | [14] > 100 µM | [15] > 100 µM | [16] > 100 µM

CC1OC(OC23C(=O)CC(C)(O)CC2(O)C=CC2=C3C(=O)c3ccc(C4CC(OC5CCC(OC6CC(O)C(O)C(C)O6)C(C)O5)C(O)C(C)O4)c(O)c3C2=O)CCC1O (stereo unspecified)
inactive: [17] 19.1 µM and 19.8 µM | [1] 6.65 µM | [2] 18.7 µM and 17.7 µM | [4] 14.5 µM and 9.4 µM | [5] 17.5 µM and 14.4 µM | [7] 5.71 µM | [8] 3.02 µM and 1.57 µM | [9] 16.4 µM and 18.5 µM | [10] 1.94 µM and 2.05 µM | [12] 17.7 µM and 17.3 µM | [18] 16.7 µM and 16.3 µM | [13] 18.3 µM and 16.5 µM | [14] 16.3 µM and 16.9 µM | [15] 21.6 µM and 17.7 µM | [16] 16 µM and 17.1 µM

NC1=NN(c2ccccc2)C(=O)C1C(=O)C(=O)Nc1cccc(C(F)(F)F)c1 (stereo unspecified)
inactive: [17] > 100 µM | [1] > 100 µM | [2] > 100 µM | [3] > 100 µM | [4] 86.1 µM | [5] > 100 µM | [6] > 100 µM | [7] > 100 µM | [8] > 100 µM | [9] > 100 µM | [10] > 100 µM | [11] > 100 µM | [12] > 100 µM | [18] > 100 µM | [13] > 100 µM | [15] > 100 µM | [16] > 100 µM

Cc1nc(Nc2ccccc2)sc1C(=O)CC(=O)C(=O)Nc1c(C(C)C)cccc1C(C)C
inactive: [17] 66.2 µM | [1] 89.7 µM | [2] 19.8 µM | [3] > 100 µM | [4] 83 µM | [5] > 100 µM | [6] 43.2 µM | [7] > 100 µM | [8] > 100 µM | [9] 85.5 µM | [10] > 100 µM | [11] > 100 µM | [12] > 100 µM | [18] > 100 µM | [13] > 100 µM | [15] > 100 µM | [16] > 100 µM

CC1(C)CC(C2CC(C)(C)CC(C)(C)[C@H]2O)[C@@H](O)C(C)(C)C1 (stereo partly specified)
inactive: [1] > 100 µM | [2] > 100 µM | [3] > 100 µM | [4] > 100 µM | [5] > 100 µM | [6] > 100 µM | [7] > 100 µM | [8] > 100 µM | [9] > 100 µM | [10] > 100 µM | [11] > 100 µM | [12] > 100 µM | [13] > 100 µM | [15] > 100 µM | [16] > 100 µM

CCOc1ccc(NC(=O)C(=O)CC(=O)C2=C(C)Nc3ccccc3S2)cc1
inactive: [17] > 50 µM | [1] > 50 µM | [2] > 50 µM | [3] > 50 µM | [4] > 50 µM | [5] > 50 µM | [6] > 50 µM | [7] > 50 µM | [8] > 50 µM | [9] > 50 µM | [10] > 50 µM | [11] > 50 µM | [12] > 50 µM | [18] > 50 µM | [13] > 50 µM | [15] > 50 µM | [16] > 50 µM

C#CC[N+](C)(CC#C)CC#C
inactive: [17] > 100 µM | [1] > 100 µM | [2] > 100 µM | [4] > 100 µM | [5] > 100 µM | [6] > 100 µM | [7] > 100 µM | [8] > 100 µM | [9] > 100 µM | [10] > 100 µM | [11] > 100 µM | [18] > 100 µM | [13] > 100 µM | [14] > 100 µM | [15] > 100 µM

Cc1ccc(C2=C(c3ccccc3)C(O)(c3ccc(C)cc3)C(c3ccccc3)=C2c2ccc(C)cc2)cc1
inactive: [17] 99.5 µM | [1] > 100 µM | [2] 72.1 µM | [3] > 100 µM | [4] > 100 µM | [5] > 100 µM | [6] > 100 µM | [7] > 100 µM | [8] > 100 µM | [9] 1.91 µM | [11] > 100 µM | [12] > 100 µM | [18] > 100 µM | [13] > 100 µM | [15] > 100 µM | [16] > 100 µM
